Assay results published in the NIST ThermoML archive (doi:10.1021/je050540h).
± gives the expanded uncertainty stated by the source.

Assay: xn = mol fraction of the nth substance listed
Details: Liquid

C1CCCCC1 [cyclohexane] + CCC(C)O
101 kPa, x1 = 1
Details | mass density [kg/m3] | speed of sound [m/s] | viscosity [mPa·s]
293.15 K | 778.62 ± 0.48 | 1279 ± 3 | 0.968 ± 0.024
298.15 K | 773.92 ± 0.49 | 1254 ± 3 | 0.887 ± 0.022
303.15 K | 769.19 ± 0.49 | 1230 ± 3 | 0.816 ± 0.021

C1CCCCC1 [cyclohexane] + CCCC(C)O
x1 = 1
Details | mass density, 293.15 K [kg/m3] | mass density, 298.15 K [kg/m3] | mass density, 303.15 K [kg/m3] | speed of sound, 293.15 K [m/s] | speed of sound, 298.15 K [m/s] | speed of sound, 303.15 K [m/s] | viscosity, 293.15 K [mPa·s] | viscosity, 298.15 K [mPa·s] | viscosity, 303.15 K [mPa·s]
7 kPa | – | – | – | 1279 ± 3 | 1254 ± 3 | 1230 ± 3 | – | – | –
101 kPa | 778.62 ± 0.48 | 773.92 ± 0.49 | 769.19 ± 0.49 | – | – | – | 0.968 ± 0.024 | 0.887 ± 0.022 | 0.816 ± 0.021

C1CCCC1 [cyclopentane] + CC(C)O
101 kPa
Details | mass density, 293.15 K [kg/m3] | mass density, 298.15 K [kg/m3] | mass density, 303.15 K [kg/m3] | speed of sound, 293.15 K [m/s] | speed of sound, 298.15 K [m/s] | speed of sound, 303.15 K [m/s] | viscosity, 293.15 K [mPa·s] | viscosity, 298.15 K [mPa·s] | viscosity, 303.15 K [mPa·s]
x1 = 0.0486 | 782.53 ± 0.48 | 778.24 ± 0.49 | 773.87 ± 0.5 | 1156 ± 3 | 1138 ± 2 | 1120 ± 2 | 2.105 ± 0.05 | 1.823 ± 0.044 | 1.587 ± 0.039
x1 = 0.091 | 779.96 ± 0.49 | 775.6 ± 0.5 | 771.15 ± 0.5 | 1155 ± 3 | 1136 ± 2 | 1118 ± 2 | 1.874 ± 0.045 | 1.627 ± 0.039 | 1.421 ± 0.035
x1 = 0.2019 | 774.33 ± 0.51 | 769.77 ± 0.52 | 765.12 ± 0.52 | 1156 ± 3 | 1136 ± 3 | 1116 ± 2 | 1.425 ± 0.035 | 1.254 ± 0.031 | 1.11 ± 0.028
x1 = 0.2958 | 769.22 ± 0.53 | 764.52 ± 0.53 | 759.73 ± 0.54 | 1156 ± 3 | 1135 ± 3 | 1114 ± 2 | 1.172 ± 0.029 | 1.038 ± 0.026 | 0.925 ± 0.024
x1 = 0.3877 | 764.63 ± 0.54 | 759.81 ± 0.55 | 754.9 ± 0.55 | 1158 ± 3 | 1136 ± 3 | 1114 ± 3 | 0.954 ± 0.024 | 0.856 ± 0.022 | 0.77 ± 0.02
x1 = 0.4823 | 760.38 ± 0.56 | 755.45 ± 0.56 | 750.44 ± 0.57 | 1162 ± 3 | 1139 ± 3 | 1116 ± 3 | 0.799 ± 0.021 | 0.724 ± 0.019 | 0.658 ± 0.018
x1 = 0.5974 | 755.59 ± 0.58 | 750.58 ± 0.58 | 745.49 ± 0.59 | 1168 ± 3 | 1145 ± 3 | 1121 ± 3 | 0.641 ± 0.017 | 0.588 ± 0.016 | 0.542 ± 0.015
x1 = 0.7206 | 750.97 ± 0.6 | 745.92 ± 0.6 | 740.79 ± 0.61 | 1179 ± 3 | 1154 ± 3 | 1130 ± 3 | 0.535 ± 0.015 | 0.499 ± 0.014 | 0.466 ± 0.013
x1 = 0.8136 | 747.96 ± 0.62 | 742.89 ± 0.62 | 737.76 ± 0.63 | 1190 ± 3 | 1165 ± 3 | 1140 ± 3 | 0.484 ± 0.014 | 0.454 ± 0.013 | 0.427 ± 0.013
x1 = 0.9219 | 745.39 ± 0.63 | 740.33 ± 0.64 | 735.2 ± 0.64 | 1208 ± 3 | 1183 ± 3 | 1157 ± 3 | 0.449 ± 0.013 | 0.424 ± 0.012 | 0.401 ± 0.012
x1 = 0.9533 | 744.87 ± 0.64 | 739.86 ± 0.64 | 734.72 ± 0.65 | 1215 ± 3 | 1189 ± 3 | 1164 ± 3 | 0.443 ± 0.013 | 0.419 ± 0.012 | 0.398 ± 0.012
x1 = 1 | 744.52 ± 0.65 | 739.55 ± 0.65 | 734.54 ± 0.66 | 1232 ± 3 | 1206 ± 3 | 1180 ± 3 | 0.438 ± 0.013 | 0.416 ± 0.012 | 0.394 ± 0.012

C1CCCC1 [cyclopentane] + CCC(C)O
101 kPa
Details | mass density, 293.15 K [kg/m3] | mass density, 298.15 K [kg/m3] | mass density, 303.15 K [kg/m3] | speed of sound, 293.15 K [m/s] | speed of sound, 298.15 K [m/s] | speed of sound, 303.15 K [m/s] | viscosity, 293.15 K [mPa·s] | viscosity, 298.15 K [mPa·s] | viscosity, 303.15 K [mPa·s]
x1 = 0.0445 | 803.52 ± 0.48 | 799.33 ± 0.49 | 795.05 ± 0.49 | 1225 ± 3 | 1207 ± 3 | 1188 ± 3 | 3.152 ± 0.074 | 2.621 ± 0.063 | 2.194 ± 0.053
x1 = 0.1036 | 799.5 ± 0.49 | 795.2 ± 0.5 | 790.81 ± 0.5 | 1219 ± 3 | 1200 ± 3 | 1181 ± 3 | 2.649 ± 0.063 | 2.231 ± 0.053 | 1.898 ± 0.046
x1 = 0.1872 | 793.75 ± 0.51 | 789.32 ± 0.51 | 784.79 ± 0.52 | 1212 ± 3 | 1192 ± 3 | 1172 ± 3 | 2.121 ± 0.051 | 1.811 ± 0.044 | 1.56 ± 0.038
x1 = 0.2856 | 787.01 ± 0.53 | 782.42 ± 0.53 | 777.74 ± 0.54 | 1204 ± 3 | 1183 ± 3 | 1162 ± 3 | 1.604 ± 0.039 | 1.393 ± 0.034 | 1.219 ± 0.03
x1 = 0.3938 | 779.61 ± 0.55 | 774.87 ± 0.55 | 770.05 ± 0.56 | 1197 ± 3 | 1175 ± 3 | 1153 ± 3 | 1.194 ± 0.03 | 1.054 ± 0.027 | 0.94 ± 0.024
x1 = 0.4873 | 773.26 ± 0.56 | 768.43 ± 0.57 | 763.52 ± 0.57 | 1193 ± 3 | 1170 ± 3 | 1148 ± 3 | 0.946 ± 0.024 | 0.85 ± 0.022 | 0.77 ± 0.02
x1 = 0.6179 | 764.92 ± 0.58 | 760.01 ± 0.59 | 755.02 ± 0.6 | 1191 ± 3 | 1167 ± 3 | 1144 ± 3 | 0.692 ± 0.019 | 0.636 ± 0.017 | 0.588 ± 0.016
x1 = 0.7034 | 759.79 ± 0.6 | 754.84 ± 0.6 | 749.82 ± 0.61 | 1193 ± 3 | 1169 ± 3 | 1145 ± 3 | 0.61 ± 0.017 | 0.569 ± 0.016 | 0.531 ± 0.015
x1 = 0.8115 | 753.71 ± 0.62 | 748.71 ± 0.62 | 743.64 ± 0.63 | 1200 ± 3 | 1175 ± 3 | 1151 ± 3 | 0.517 ± 0.015 | 0.485 ± 0.014 | 0.455 ± 0.013
x1 = 0.9113 | 748.61 ± 0.63 | 743.57 ± 0.64 | 738.46 ± 0.64 | 1211 ± 3 | 1186 ± 3 | 1161 ± 3 | 0.468 ± 0.013 | 0.441 ± 0.013 | 0.416 ± 0.012
x1 = 0.9506 | 746.74 ± 0.64 | 741.7 ± 0.64 | 736.6 ± 0.65 | 1218 ± 3 | 1192 ± 3 | 1167 ± 3 | 0.451 ± 0.013 | 0.426 ± 0.013 | 0.403 ± 0.012
x1 = 1 | 744.52 ± 0.65 | 739.55 ± 0.65 | 734.54 ± 0.66 | 1232 ± 3 | 1206 ± 3 | 1180 ± 3 | 0.438 ± 0.013 | 0.416 ± 0.012 | 0.394 ± 0.012
